Assay results reported in patent US20210169911A1, “PURINE AND PYRIMIDINE NUCLEOTIDES AS ECTO-5'-NUCLEOTIDASE INHIBITORS” (The United States of America,as represented by the …, priority 2018, published 2021).
Structures can show the parent of a compound that is named as a salt. Where two headings read alike, the source gives them in different places.

Tests used:
[1] = molecular target: T1, recombinant soluble rat CD73 (Rattus norvegicus, UniProt P21588); experiment: Radiometric rat ecto-5′-nucleotidase (CD73) assay with [3H]AMP; conditions: for % inhibition at indicated concentration, rat CD73: initial screening concentration 1 μM
T1 sequence (P21588 29-551 limits assumed): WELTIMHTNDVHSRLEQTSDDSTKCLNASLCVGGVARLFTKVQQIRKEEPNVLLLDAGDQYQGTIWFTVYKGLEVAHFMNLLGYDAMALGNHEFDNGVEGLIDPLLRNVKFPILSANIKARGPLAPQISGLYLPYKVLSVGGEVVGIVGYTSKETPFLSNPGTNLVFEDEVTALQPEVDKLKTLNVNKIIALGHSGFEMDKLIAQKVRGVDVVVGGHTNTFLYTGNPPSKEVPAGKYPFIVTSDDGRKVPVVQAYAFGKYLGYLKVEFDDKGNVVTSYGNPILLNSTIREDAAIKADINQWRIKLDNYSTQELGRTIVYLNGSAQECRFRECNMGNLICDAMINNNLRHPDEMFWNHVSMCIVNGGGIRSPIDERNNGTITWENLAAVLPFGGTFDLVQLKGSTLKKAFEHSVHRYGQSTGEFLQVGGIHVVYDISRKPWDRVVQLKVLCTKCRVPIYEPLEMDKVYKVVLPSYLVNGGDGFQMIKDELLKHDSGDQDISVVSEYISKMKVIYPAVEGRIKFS
Protocol: After the enzymatic reaction, the substrate was separated from its product [2,8-^3H]adenosine by precipitation with lanthanum chloride followed by filtration through glass fiber filters (34). […] Ki values were calculated from the obtained IC50 values using the Cheng-Prusoff equation (6,7).
The assay was performed as previously described (41) using recombinant rat CD73 expressed in Sf9 insect cells (33). […] The mixture was incubated for 25 min at 37° C. The reaction was stopped by adding 500 μL of ice-cooled precipitation buffer containing 100 mM aqueous lanthanum chloride and 100 mM aqueous sodium acetate solution (pH 4.0). After 30 min, the precipitation was filtered through GF/B glass fiber filters (M-48, Brandel, Gaithersburg, Md., USA). After washing three times, 4 mL of the scintillation cocktail ULTIMA Gold XR was added and then quantified by scintillation counting (TRICARB 2900 TR, Packard/PerkinElmer). Three separate inhibition assays were performed in triplicate, concentration-response curves were fitted, and Ki values were calculated.
The assay was performed essentially as previously described.^D Stock solutions (10 mM) of the compounds were prepared in demineralized water and further dilutions were performed in assay reaction buffer (25 mM Tris, 140 mM sodium chloride, 25 mM sodium dihydrogen phosphate, pH 7.4). 10 μL of the inhibitor solution were added to 70 μL of assay reaction buffer. […] The enzymatic reaction was performed for 25 min at 37° C. in a shaking water bath. […] After the precipitation was completed (after at least 30 min on ice), the mixture was separated by filtration through GF/B glass fiber filters using a cell harvester (M-48, Brandel, Gaitherburg, Md., USA). After washing each reaction vial three times with 400 μl of cold (4° C.) demineralized water, 5 ml of the scintillation cocktail (ULTIMA Gold XR, PerkinElmer, MA, USA) was added and radioactivity was measured by scintillation counting (TRICARB 2900 TR, Packard/PerkinElmer; counting efficacy: 49-52%). Two controls were included and measured as duplicates. One reaction was performed without the inhibitor resulting in 100% enzyme activity (positive control) and one was incubated without the inhibitor and the enzyme and served as background control. The resulting data were subtracted from the background and were normalized with to the positive control. The results were plotted, and concentration-inhibition curves were fitted with GraphPad Prism 5 (GraphPad Software, La Jolla, USA).
After 30 min, the precipitation was filtered through GF/B glass fiber filters (M-48, Brandel, Gaithersburg, Md., USA). After washing three times, 4 mL of the scintillation cocktail ULTIMA Gold XR was added and then quantified by scintillation counting (TRICARB 2900 TR, Packard/PerkinElmer). Three separate inhibition assays were performed in triplicate, concentration-response curves were fitted, and K, values were calculated.

[2] = tested on: recombinant soluble human CD73; experiment: Radiometric CD73 inhibition assay, recombinant soluble human CD73; format: biochemical; conditions: human vs rat CD73 Ki, Table 5
Protocol: (§1) The cDNA for the soluble human CD73 (Genbank accession no. NM_002526) was obtained from Prof. Dr. Norbert Sträter (University of Leipzig, Germany) (3). […] Sf9 insect cells were grown in Insect-[…] media (#: BE12-[…], Lonza, Switzerland) with 10 mg/l gentamicin and split at a ratio of 1:3 every fourth day. For transfection, cells were seeded into cell culture flasks (25 cm^2) at 60-70% confluence. 100 μl of cell medium and 1 μl of the vector DNA (1000 ng/μ1) were mixed with 2.5 μl of baculovirus genomic ProEasyTM vector DNA (AB vector, CA, USA) and combined with premixed 100 μl of cell medium and 8 μl of CellfectinTM II Reagent (Thermo Fisher Scientific, MA, USA). […] The cells were incubated for 30 min at rt, and for further 4 days at 27° C. Cells from the transfection procedure were detached from the bottom of the flasks and centrifuged for 5 min at 2000 g. 1.5 ml of the supernatant (viral stock) was added to 75 cm^2 cell culture flasks containing Sf9 cells (60-70% confluence), and the cells were incubated for four days at 27° C. Then 1.5 ml of the supernatant were taken and added to uninfected Sf9 cells in a 75 cm^2 flask. This was repeated five more times, using more cells and larger flasks after the third round of infections (150 cm^2 to which 3.0 ml of supernatant were added). The stock P8 was finally used for infection of the cells. For protein expression, 3 ml of the virus solution were used to infect 150 ml of cell media containing 2×10^6 cells/ml in a 500 ml Erlenmeyer flask, and they were incubated for 4 days at 27° C. with shaking (150 rpm). Then, cell suspensions were transferred to 50 ml falcon tubes and centrifuged at 15 min at 5000 g at 4° C. The supernatants were subjected to ultrafiltration using Amicon® Ultra-15, 10 kDa cut-off (Merck Millipore, MA, USA) at 5000 g for 15-30 min at 4° C. The concentrated protein was purified with HisPurTM Ni^2+-NTA spin columns (#: 88226, Thermo Fisher Scientific, MA, USA). The elution of the columns was performed as recommended in the instruction manual with adjusting the incubation time for protein binding to 1 h at 4° C. with an end-over-end mixer and an additional incubation step of 5 min with the elution buffer before eluting. Eluates were pooled and dialyzed (Membra-Cer, 14 kDa cut-off, 250 mm×44 mm×0.02 mm; Carl Roth, Germany) at 4° C. in 25 mM Tris, pH 7.4, with a volume adjusted to 40 times the volume of the elution fraction. […] The enzyme was aliquoted and stored at -80° C. until use.

[3] = molecular target: T2, recombinant soluble human CD73 (Homo sapiens, UniProt P21589); experiment: as above; format: biochemical; conditions: Table 6; for Ki: human soluble CD73, read-out: Ki at hCD73
T2 construct: 6xHis (C); secretion signal peptide of vector pACGP67B (N); made in house; host or cells: Sf9 insect cells (baculovirus)
T2 sequence (P21589 28-549): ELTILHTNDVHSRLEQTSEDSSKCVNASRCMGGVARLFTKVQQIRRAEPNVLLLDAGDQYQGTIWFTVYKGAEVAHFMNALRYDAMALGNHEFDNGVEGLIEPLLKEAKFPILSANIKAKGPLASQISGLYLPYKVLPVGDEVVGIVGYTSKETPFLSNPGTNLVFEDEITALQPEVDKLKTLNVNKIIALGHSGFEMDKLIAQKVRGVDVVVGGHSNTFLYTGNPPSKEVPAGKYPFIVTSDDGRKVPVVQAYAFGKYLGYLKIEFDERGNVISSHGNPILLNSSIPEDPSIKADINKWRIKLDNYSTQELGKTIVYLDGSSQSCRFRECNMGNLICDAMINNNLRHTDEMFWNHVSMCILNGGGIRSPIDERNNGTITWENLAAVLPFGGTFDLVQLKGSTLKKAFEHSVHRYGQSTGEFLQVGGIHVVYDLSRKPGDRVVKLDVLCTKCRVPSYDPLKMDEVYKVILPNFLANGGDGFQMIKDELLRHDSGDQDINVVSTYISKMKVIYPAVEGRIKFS
Protocol: as §1

[4] = Stability in aqueous solution; format: physicochemical; conditions: decomposes to UOPCP (4a)
Protocol: Cytidine derivatives varying at the 2′-position (7a and 7b), as well as at the 5-position (7c-e), were prepared as depicted in Scheme 2. […] The required nucleosides were prepared by either reacting cytidine (6a), 2′-deoxycytidine (6b), 5-fluorocytidine (6d) or 5-methylcytidine (6e) with respective alkoxyamino derivatives in pyridine^8 followed by phosphonylation reaction to afford compounds 9a-f, or by reacting cytidine (6a) with benzyloxyamine, followed by nucleophilic substitution at the 3-position and subsequent 5′-O-phosphonylation of the nucleosides to afford compounds 9h and 9i (Scheme 2). Furthermore, 3-deazauridine-5′-α,β-methylene-diphosphate (10), (S)-methanocarba-5′-α,β-methylene-diphosphate (11) and the ethyl ester of 2-thio-UDP (12) (7) were prepared to extend the exploration of SARs of the nucleotide analogs as CD73 inhibitors. All phosphonate-substituted nucleotides were purified to homogeneity by ion exchange chromatography followed by reverse phase C18 HPLC.

[5] = read-out: Ki ± SEM (nM), rat CD73, Table 3, recombinant soluble rat CD73, 5 μM [3H]AMP

| Compound | Ki [1, 5] [nM] | Ki [3] [nM] | further results |
| --- | --- | --- | --- |
| CCn1c(=O)n([C@@H]2O[C@H](COP(=O)(O)CP(=O)(O)O)[C@@H](O)[C@H]2O)cc/c1=N/OCc1ccccc1 [Compound 9i, N^4-[O-(4-Benzyloxy)]-3-ethyl-cytidine-5′-O-[(phosphonomethyl)phosphonic acid]] | – | – | Ki [1]: 262 ± 46 nM |
| Nc1ncnc2c1ccn2[C@@H]1O[C@H](COP(=O)(O)CP(=O)(O)O)[C@@H](O)[C@H]1O [Compound 2g, 7-Deazaadenosine-5′-O-[(phosphonomethyl)phosphonic acid]] | 88.6 ± 4 | – | – |
| Nc1ccnc2c1ncn2[C@@H]1O[C@H](COP(=O)(O)CP(=O)(O)O)[C@@H](O)[C@H]1O [Compound 2e, 1-Deazaadenosine-5′-O-[(phosphonomethyl)phosphonic acid]] | > 1000 | – | % inhibition at indicated concentration, rat CD73 ([1]; Table 3): 36% |
| Nc1ncnc2c1ncn2[C@@H]1O[C@H](COP(=O)(O)CP(=O)(O)O)[C@@H](O)[C@H]1O [I, reference compound] | 167 ± 53 | – | – |
| O=c1[nH]c(=NOCc2ccccc2)c(F)cn1C1OC(COP(=O)(O)CP(=O)(O)O)C(O)C1O (stereo not shown) [Compound 9g, N^4-[O-(4-Benzyloxy)]-5-fluoro-cytidine-5′-O-[(phosphonomethyl)phosphonic acid]] | – | – | potency at human CD73 as compared to the rat enzyme [2]: 5 fold |
| Cn1c(=O)n([C@@H]2O[C@H](COP(=O)(O)CP(=O)(O)O)[C@@H](O)[C@H]2O)cc/c1=N/OCc1ccc(-c2cn(CCF)nn2)cc1 [Compound 120, N^4-(4-(1-(2-Fluoroethyl)-1H-1,2,3-triazol-4-yl)benzyloxy)-3-methylcytidine-5′-α,β-methylenediphosphate triethylammonium salt] | – | 0.627 ± 0.099 | – |
| CCN(CC)CC.CCN(CC)CC.O=c1ccn([C@H]2[C@H](O)[C@H](O)C3(COP(=O)(O)CP(=O)(O)O)C[C@H]23)c(=O)[nH]1 (stereo partly drawn) [Compound 121, (((((2R,3S,4R,5S)-4-(2,4-Dioxo-3,4-dihydropyrimidin-1(2H)-yl)-2,3-dihydroxy-1λ^5-bicyclo[3.1.0]hexan-1-yl)methoxy)(hydroxy)phosphoryl)methyl)phosphonic Acid Triethylammonium Salt] | – | – | inhibition of hCD73 ([3]; at 50 μM): 35% inhibition |
| Cn1c(=O)n([C@@H]2O[C@H](COP(=O)(O)CP(=O)(O)O)[C@@H](O)[C@H]2O)cc/c1=N/OCc1cccc(Cl)c1 [Compound 106, N^4-(3-Chlorobenzyloxy)-3-methylcytidine-5′-α,β-methylenediphosphate triethylammonium salt] | – | 1.61 ± 0.09 | – |
| O=C(Nc1ccn([C@@H]2O[C@H](COP(=O)(O)CP(=O)(O)O)C(O)C2O)c(=O)n1)c1ccccc1 (stereo partly shown) [Compound 7f, 4-Benzoylcytidine-5′-O-[(phosphonomethyl)phosphonic acid]] | – | – | decomposition in aqueous solution [4]: rapid decomposition; decomposition in aqueous solution ([4]; listed as 71): decomposition in aqueous solution |
| Cn1c(=O)n([C@@H]2O[C@H](COP(=O)(O)CP(=O)(O)O)[C@@H](O)[C@H]2O)cc/c1=N/OCc1cccc(C(F)(F)F)c1 [Compound 107, N^4-((3-Trifluoromethyl)benzyloxy)-3-methyleytidine-5′-α,β-methylenediphosphate triethylammonium salt] | – | 1.44 ± 0.09 | – |
| Nc1nccc2c1ncn2[C@@H]1O[C@H](COP(=O)(O)CP(=O)(O)O)[C@@H](O)[C@H]1O [Compound 2f, 3-Deazaadenosine-5′-O-[(phosphonomethyl)phosphonic acid]] | > 1000 | – | % inhibition at indicated concentration, rat CD73 ([1]; Table 3): 36% |
| (((((2R,3S,4R,5S)-4-((Z)-4-(((4-Chlorobenzyl)oxy)imino)-3-methyl-2-oxo-3,4-dihydropyrimidin-1(2H)-yl)-2,3-dihydroxy-1V-bicyclo[3.1.0]hexan-1-yl)methoxy)(hydroxy)phosphoryl)methyl)phosphonic Acid Triethylammonium Salt [Compound 122] | – | 59.2 ± 5.58 | – |
| C#Cc1ccc(CO/N=c2/ccn([C@@H]3O[C@H](COP(=O)(O)CP(=O)(O)O)[C@@H](O)[C@H]3O)c(=O)n2C)cc1 [Compound 114, N^4-(4-Ethynylbenzyloxy)-3-methyleytidine-5′-α,β-methylenediphosphate triethylammonium salt] | – | 0.664 ± 0.089 | – |
